For seven compounds, EC50 and CC50 results are on record in US10029984B2, “Mono- or di-substituted indole derivatives as dengue viral replication inhibitors” (Janssen Pharmaceuticals, Inc., priority 2015, dated 2018).

The test system of data set [1] is DENV-2 16681 strain. As to the kind of experiment: DENV-2 antiviral assay (eGFP-labeled virus in Vero cells). The format is cell-based, Dengue virus. Conditions: DENV-2 16681 eGFP, MOI 0.5, 3 days. The protocol:
The antiviral activity of all the compounds of the invention was tested against DENV-2 16681 strain which was labeled with enhanced green fluorescent protein (eGPF; Table 1). The culture medium consists of minimal essential medium supplemented with 2% of heat-inactivated fetal calf serum, 0.04% gentamycin (50 mg/mL) and 2 mM of L-glutamine. Vero cells, obtained from ECACC, were suspended in culture medium and 25 μL was added to 384-well plates (2500 cells/well), which already contain the antiviral compounds. Typically, these plates contain a 4-fold serial dilution of 9 dilution steps of the test compound at 200 times the final concentration in 100% DMSO (200 nL). In addition, each compound concentration is tested in quadruplicate (final concentration range: 25 μM-0.00038 μM). Finally, each plate contains wells which are assigned as virus controls (containing cells and virus in the absence of compound), cell controls (containing cells in the absence of virus and compound) and medium controls (containing medium in the absence of cells, virus and compounds). To the wells assigned as medium control, 25 μL of culture medium was added instead of Vero cells. Once the cells were added to the plates, the plates were incubated for 30 minutes at room temperature to allow the cells to distribute evenly within the wells. Next, the plates were incubated in a fully humidified incubator (37° C., 5% CO2) until the next day. Then, DENV-2 strain 16681, labeled with eGFP, was added at a multiplicity of infection (MOI) of 0.5. Therefore, 15 μL of virus suspension was added to all the wells containing test compound and to the wells assigned as virus control. In parallel, 15 μL of culture medium was added to the medium and cell controls. Next, the plates were incubated for 3 days in a fully humidified incubator (37° C., 5% CO2). At the day of the read out, the eGFP fluorescence was measured using an automated fluorescence microscope at 488 nm (blue laser). Using an in-house LIMS system, inhibition dose response curves for each compound were calculated and the half maximal effective concentration (EC50) was determined. Therefore, the percent inhibition (I) for every test concentration is calculated using the following formula: I=100*(ST−SCC)/(SVC−SCC); ST, SCC and SVC are the amount of eGFP signal in the test compound, cell control and virus control wells, respectively. The EC50 represents the concentration of a compound at which the virus replication is inhibited with 50%, as measured by a 50% reduction of the eGFP fluorescent intensity compared to the virus control. The EC50 is calculated using linear interpolation.

The subject of data set [2] is Vero cells. As to the kind of experiment: in vitro. The format is cell-based. To be noted: African green monkey. On the procedure: (§1) In parallel, the toxicity of the compounds was assessed on the same plates. Once the read-out for the eGFP signal was done, 10 μL of resazurin, a cell viability stain, was added to all wells of the 384-well plates. The resazurin assay is based on the reduction of the blue resazurin by NADH, produced by the cells, into the highly fluorescent product, resorufin. The formation of pink fluorescent resorufin is directly related to the number of viable cells in the well. The plates were incubated for an additional 5 hours in a fully humidified incubator (37° C., 5% CO2). Next, the plates were measured on an Infinite reader (Tecan) using an excitation wavelength of 530 nm. The half maximal cytotoxic concentration (CC50) was also determined, defined as the concentration required to reduce the resazurin conversion by 50% compared to that of the cell control wells. Finally, the selectivity index (SI) was determined for the compounds, which was calculated as followed: SI=CC50/EC50.

In data set [3] the test system is DENV-1 strain TC974#666. The data set can be described thus: Tetravalent RT-qPCR assay Protocol A, serotype 1. Conditions: Dengue virus, DENV1, 72 h; RT-qPCR serotype 1 TC974#666, Vero cells, day 3. The format is cell-based. On the procedure: (§2) The antiviral activity of the compounds of the invention was tested against DENV-1 strain TC974#666 (NCPV; Table 6), DENV-2 strain 16681 (Table 7), DENV-3 strain H87 (NCPV; Table 8) and DENV-4 strains H241 (NCPV; Table 9) in a RT-qPCR assay. Therefore, Vero cells were infected with either DENV-1, or -2, or -3, or -4 in the presence or absence of test compounds. At day 3 post-infection, the cells were lysed and cell lysates were used to prepare cDNA of both a viral target (the 3′UTR of DENV; table 2) and a cellular reference gene (β-actin, table 2). Subsequently, a duplex real time PCR was performed on a Lightcycler480 instrument. The generated Cp value is inversely proportional to the amount of RNA expression of these targets. Inhibition of DENV replication by a test compound result in a shift of Cp's for the 3′UTR gene. On the other hand, if a test compound is toxic to the cells, a similar effect on β-actin expression will be observed. The comparative ΔΔCp method is used to calculate EC50, which is based on the relative gene expression of the target gene (3′UTR) normalized with the cellular housekeeping gene (β-actin).
(§3) The culture medium consisted of minimal essential medium supplemented with 2% of heat-inactivated fetal calf serum, 0.04% gentamycin (50 mg/mL) and 2 mM of L-glutamine. Vero cells, obtained from ECACC, were suspended in culture medium and 75 μL/well was added in 96-well plates (10000 cells/well), which already contain the antiviral compounds. Typically, these plates contain a 4-fold serial dilution of 9 dilution steps of the test compound at 200 times the final concentration in 100% DMSO (500 nL; final concentration range: 25 μM-0.00038 μM). In addition, each plate contains wells which are assigned as virus controls (containing cells and virus in the absence of compound) and cell controls (containing cells in the absence of virus and compound). Once the cells were added in the plates, the plates were incubated in a fully humidified incubator (37° C., 5% CO2) until the next day. Then, DENV-1 strain TC974#666 at an MOI of 0.6, DENV-2 strain 16681 at an MOI of 0.01, DENV-3 strain H87 at an MOI of 1.0 and DENV-4 strains H241 at an MOI of 0.2 and SG/06K2270DK1/2005 at an MOI of 0.16, were added. Therefore, 25 μL of virus suspension was added to all the wells containing test compound and to the wells assigned as virus control. In parallel, 25 μL of culture medium was added to the cell controls. Next, the plates were incubated for 3 days in a fully humidified incubator (37° C., 5% CO2). After 3 days, the supernatant was removed from the wells and the cells were washed twice with ice-cold PBS (˜100 μL). The cell pellets within the 96-well plates were stored at −80° C. for at least 1 day. Next, RNA was extracted using the Cells-to-CT™ lysis kit, according to the manufacture's guideline (Applied Biosystems). The cell lysates can be stored at −80° C. or immediately used in the reverse transcription step.
(§4) In preparation of the reverse transcription step, mix A (table 3A) was prepared and 7.57 μL/well was dispensed in a 96-well plate. After addition of 5 μL of the cell lysates, a five minute denaturation step at 75° C. was performed (table 3B). Afterwards, 7.43 μL of mix B was added (table 3C) and the reverse transcription step was initiated (table 3D) to generate cDNA.
(§5) Finally, a RT-qPCR mix was prepared, mix C (table 4A), dispensed in 96-well LightCycler qPCR plates to which 3 μL of cDNA was added and the qPCR was performed according to the conditions in table 4B on a LightCycler 480. Using the LightCycler software and an in-house LIMS system, dose response curves for each compound were calculated and the half maximal effective concentration (EC50) and the half maximal cytotoxic concentration (CC50) were determined.

Data set [4] relates to DENV-2 strain 16681. The data set can be described thus: Tetravalent RT-qPCR assay Protocol A, serotype 2. Type of data set: cell-based. Conditions: Dengue virus, DENV2, 72 h; RT-qPCR serotype 2 16681, Vero cells, day 3. On the procedure:
as §2, §3, §4, §5
(Real-time PCR tracks product formation cycle by cycle.)

Data set [5] deals with DENV-3 strain H87. As to the kind of experiment: Tetravalent RT-qPCR assay Protocol A, serotype 3. The format is cell-based. To be noted: Dengue virus, DENV3, 72 h; RT-qPCR serotype 3 H87, Vero cells, day 3. On the procedure: as §2, §3, §4, §5
Data set [6] relates to DENV-4 strains H241. The data set can be described thus: Tetravalent RT-qPCR assay Protocol A, serotype 4. Type of data set: cell-based. Conditions: Dengue virus, DENV4, 72 h; RT-qPCR serotype 4 H241, Vero cells, day 3. The protocol:
as §2, §3, §4, §5

A short description of data set [7]: in vitro. Type of data set: cell-based. Conditions: African green monkey, CC50. The protocol: as §2, §3, §5
A short description of data set [8]: in vitro. Type of data set: cell-based. Conditions: African green monkey, CC50. The protocol:
as §1
The source holds these as a separate data set.

The EC50 is the concentration needed to bring the measured effect to its halfway point. One may read the CC50 as the concentration giving 50% cytotoxicity.

The structures appear in SMILES notation.

For the compound `COc1cc(NC(C(=O)c2c[nH]c3cc(F)ccc23)c2ccc(F)cc2OC)cc(S(C)(=O)=O)c1` (single isomer, unassigned) [Enantiomer 1A, 1-(6-fluoro-1H-indol-3-yl)-2-(4-fluoro-2-methoxyphenyl)-2-((3-methoxy-5-(methylsulfonyl)phenyl)amino)ethanone], the EC50 was determined as 0.88 nM in data set [1] (listed as 1A*); 5.18 nM in data set [3]; 0.83 nM in data set [4]; 49.6 nM in data set [5]; 165 nM in data set [6]. In data set [2], this compound gave a CC50 of 5.9 µM. Also, the midpoint of cytotoxicity in data set [7], the CC50 at 3 days, lay at 3.52 µM.

Take `COc1cc(NC(C(=O)c2c[nH]c3c(C)c(Cl)ccc23)c2ccc(F)cc2OC)cc(S(C)(=O)=O)c1` (single isomer, unassigned) [Enantiomer 3A, 1-(6-chloro-7-methyl-1H-indol-3-yl)-2-(4-fluoro-2-methoxyphenyl)-2-((3-methoxy-5-(methylsulfonyl)phenyl)amino)ethanone]: the concentration giving a half-maximal response (EC50) in data set [1] (listed as 3A*) came to 0.3 nM; in data set [3] it was 7.18 nM; in data set [4] it was 0.285 nM; in data set [5], 58.6 nM; in data set [6], 121 nM. The CC50 in data set [2] is 4.8 µM. The compound also returned a CC50 at 3 days in data set [7] of 3.91 µM.

For the compound `COc1cc(NC(C(=O)c2c[nH]c3cc(Cl)ccc23)c2ccc(F)cc2OC)cc(S(C)(=O)=O)c1` (single isomer, unassigned) [Enantiomer 4A, 1-(6-chloro-1H-indol-3-yl)-2-(4-fluoro-2-methoxyphenyl)-2-((3-methoxy-5-(methylsulfonyl)phenyl)amino)ethanone], the EC50 was 0.5 nM in data set [1] (listed as 4A*); 4.22 nM in data set [3]; 0.377 nM in data set [4]; 55.3 nM in data set [5]; 131 nM in data set [6]. The compound further had a CC50 in data set [2] of 4.4 µM. In data set [7], this compound had a CC50 at 3 days of 3.59 µM.

`COc1cc(NC(C(=O)c2c[nH]c3cc(OC)ccc23)c2ccc(F)cc2OC)cc(S(C)(=O)=O)c1` (single isomer, unassigned) [Enantiomer 5B, 2-(4-fluoro-2-methoxyphenyl)-1-(6-methoxy-1H-indol-3-yl)-2-((3-methoxy-5-(methylsulfonyl)phenyl)amino)ethanone]: the EC50 in data set [1] (listed as 5B*) was determined as 1 nM; in data set [3], 8.89 nM; in data set [4] it was 1.23 nM; in data set [5], 100 nM; in data set [6], 186 nM. The compound also had a CC50 in data set [2] greater than 13 µM.

Regarding `COc1cc(NC(C(=O)c2c[nH]c3c(F)cc(C)cc23)c2ccc(F)cc2OC)cc(S(C)(=O)=O)c1` (single isomer, unassigned) [Enantiomer 6A, 2-(4-fluoro-2-methoxyphenyl)-1-(7-fluoro-5-methyl-1H-indol-3-yl)-2-((3-methoxy-5-(methylsulfonyl)phenyl)amino)ethanone], the EC50 in data set [1] (listed as 6A*) is 2.7 nM; in data set [3], 9.7 nM; in data set [4] it was 3.48 nM; in data set [5] it was 123 nM; in data set [6], 239 nM. In addition, it took 5 µM to reach half-maximal cytotoxicity in data set [2] (CC50). Also, the CC50 at 3 days in data set [7] turned out to be 4.61 µM.

For the compound `COc1cc(NC(C(=O)c2c[nH]c3cc(F)c(F)cc23)c2ccc(F)cc2OC)cc(S(C)(=O)=O)c1` (single isomer, unassigned) [Enantiomer 7A, 1-(5,6-difluoro-1H-indol-3-yl)-2-(4-fluoro-2-methoxyphenyl)-2-((3-methoxy-5-(methylsulfonyl)phenyl)amino)ethanone], the EC50 in data set [1] (listed as 7A*) stood at 0.76 nM; in data set [3] it was 3.7 nM; in data set [4], 0.525 nM; in data set [5] it was 61.6 nM; in data set [6], 142 nM. The same compound yielded a CC50 in data set [2] of 4.4 µM. The CC50 at 3 days in data set [7] turned out to be 3.87 µM.

As for `COc1cc(NC(C(=O)c2c[nH]c3c(Cl)c(OC)ccc23)c2ccc(F)cc2OC)cc(S(C)(=O)=O)c1` (single isomer, unassigned) [Enantiomer 12A, 1-(7-chloro-6-methoxy-1H-indol-3-yl)-2-(4-fluoro-2-methoxyphenyl)-2-((3-methoxy-5-(methylsulfonyl)phenyl)amino)ethanone], the EC50 in data set [1] (listed as 12A*) was found to be 0.42 nM; in data set [3], 14 nM; in data set [4], 0.25 nM; in data set [5] it was 73.8 nM; in data set [6], 261 nM. The 50% cytotoxic concentration (CC50) in data set [8] was greater than 25 µM.
